The subject of experiment [1] is wound region of rabbit ears (granulation tissue, capillaries). The experiment in a line: In vivo wound healing assay (rabbit ear wounds). Details: species or system New Zealand White rabbits. Conditions: for Area of granulation tissue / Number of blood vessels / increment of the area of granulation tissue, in words / increment of the number of blood vessels, in words: 5 μM; for Area of granulation tissue / Number of blood vessels: spotted or injected intradermally to wound, negative control = 100%; for increment of the area of granulation tissue, in words / increment of the number of blood vessels, in words: comment on Table 1. The method, then: Female New Zealand White rabbits (body weight 2.0 kg) were used as experimental animals in this assay. PBS solution containing 0.1% BSA (BSA-PBS solution) was prepared as control solution for negative control group (comparative example 1). sphingosylphosphorylcholine (comparative example 2), phytosphingosine (comparative example 3), N-acethylphytosphingosine (comparative example 4) as positive control group, and tetraacetyl phytosphingosine (example 1) were dissolved in ethanol or methanol respectively. Each portion of the solutions was added to silicone glass tube. Then, it was charged with N2 gas, and added 0.1% BSA-PBS solution. After coupling them with water sonicator and vortex, these solutions were spotted on and injected intradernally to wound region of experimental animals. At the same time, to study an effect of the angiogenesis as concentrations of tetraacethylsphingosine, the animal was treated with 0.1 μM, 1 μM, 2 μM and 5 μM of tetraacethylsphingosine, and campared with the results. Experimental animals were put into special stainless cages which was designed suitably to assay experimental animals, anesthetized by injecting ketanine (3-4 mg/kg) intramuscularly. The hair and corneous tissue of innerside of both ears were removed with shaving and washing, and then were disinfected with 70% ethanol. Four wound regions per ear were formed by using 6 mm punch for sldn histological examination (Stiefel, Germany) under sterile condition if possible, and each wound region was spotted or injected intradennally 30-50 μl of the control solution or each treatment material. Wound regions were sealed with cathereep (Nichiban Co., Tokyo Japan) which was cut in size which are greater than that of wound region to prevent contamination of the wound regions and formation of crust. Then, the wound regions were protected with 2×2 gauze, and ears of rabbit were bandaged with elastopore (Nichiban Co., Tokyo Japan). Subsequently, the rabbits were bred in a cage per a rabbit. After 48 hrs, same procedure was repeated. On 4 days and 8 days after forming wound regions, sacrificing the rabbits and treating tissue for histological study. For histological study, wound tissues were fixed with 10% formalin, cut it in half longitudinally and made paraffin block. Then, approximately 5 μm of segment was made, attached it to slide and stained with hematoxylin and eosin to observe a change of epidermis and dermis, and stained with Massons Trichrome to observe a degree of collagen formation of granulation tissue.
First, stained tissue specimen was calibrated with ocular micrometer of optical microscope for image analysis. Then, After photographing each histological change aspects with digital camera under 40× and 100× objective lens and saving them on computer (Pentium III), image analysis was carried out with Scion Image for Windows software which was provided by (C) 2000 Scion corporation as follows: that is, degree of epidermis migration could be determined by measuring the distance from left to right boundary of wound, and thickness of newly formed epidermis could be determined by measuring the thickness of three spots in 1 mm of pitch and averaging measured values. To compare with degree of granulation tissue formation of dermis, three methods were used: 1) A method of measuring total area of newly formed granulation tissue and comparing with it; 2) A method of counting the number of cells such as fibroblast presented in six spots of center region of wound under high magnification (100×) and comparing with it; and 3) A method of determining degree of angiogenesis by counting the number of capillaries in granulation tissue in a same way as described above. If there was eschar, it wasn't determined. The data obtained from the negative control group, the positive control group and the experinental group were analyzed statistically by carrying out paired student's t test. […]

The test system of experiment [2] is HUVEC (human umbilical vein endothelial cell). Nature of the experiment: Angiogenesis test of HUVEC (tube formation test). The following applies: FIG. 4 and FIG. 5. Type of experiment: cell-based. On the procedure:
Above suspension procedure was repeated twice.
Matrigel was prepared as follows: First, collagen solution was prepared by mixing commercially available acid-soluble porcine type I collagen (3.0 mg/ml), 5× DMEM and buffer (0.05 N NaOH, 2.2% NaHCO3, 200 mM HEPES; 7:2:1), loaded to 24 well or 96 well (100-300 μl/well) dividedly, and then incubated for approximately 10 mins to form a gel due to polymerization of collagen. Primary culture was carried to obtain HUVEC (those which were passaged five times), removed cells at 37° C., washed cells with PBS, detached cells with trypsin/EDTA, loaded cells to wells (4-6×10^4 cells/well), and then fiuther incubated for 12-18 hrs.

Experiment [3] deals with endothelial cells. The experiment in a line: Migration assay of endothelial cells (Transwell). The experiment is classed as cell-based. Conditions: 0.1 μM, 1 μM and 5 μM; 2 hrs; fewer migrated cells with increasing concentration; FIG. 6 and FIG. 7. The method, then: Transwell membranes were coated with 0.2% gelatin, and then were left for 12 hrs at 4° C. The membrane for control group was treated with BSA-PBS as described in the above examples, whereas the membranes for experimental group were treated with 0.1 μM, 1 μM and 5 μM of tetraacetylphytosphingosine solution according to the present invention respectively as described in the above examples. After incubating these membranes for 2 hrs, staining them with Diff Quick solution, and then observing them on slide glass.

Turning to `CCCCCCCCCCCCCC[C@@H](O)[C@@H](O)[C@H](CO)NC(C)=O` [NAPS, N-acethylphytosphingosine], in experiment [1], the “Area of granulation tissue” value was 212% and the “Number of blood vessels” value came to 96%.

Consider `CCCCCCCCCCCCCC[C@@H](O)[C@@H](O)[C@@H](N)CO` [PS, phytosphingosine], for which, in experiment [1], the “Area of granulation tissue” value is 112% and the “Number of blood vessels” value was found to be 106%.

Take `CCCCCCCCCCCCC/C=C/[C@@H](O)[C@@H](N)COP(=O)([O-])OCC[N+](C)(C)C` [SPC, sphingosylphosphorylcholine]: in experiment [1], the “Area of granulation tissue” value was 151%; the “Number of blood vessels” value is 148%; the “increment of the area of granulation tissue, in words” value is “prompted increment”; the “increment of the number of blood vessels, in words” value is recorded as “prompted increment”.

For the compound tetraacetylphytosphingosine [TAPS], in experiment [1] (0.1 μM, 1 μM, 2 μM and 5 μM, 4 days after treatment, vs negative control, FIG. 1), the “number of blood vessels (angiogenesis), in words” value is given as “inhibited angiogenesis greatly”. For the same compound, the “area of granulation tissue, in words” value in experiment [1] (0.1 μM, 1 μM, 2 μM and 5 μM, 4 days after treatment, vs negative control, FIG. 2) is recorded as “decreased the area of granulation tissue”. Besides, in experiment [1], the “Area of granulation tissue” value is recorded as 76%; the “Number of blood vessels” value came out at 31%; the “increment of the area of granulation tissue, in words” value is “inhibited increment”; the “increment of the number of blood vessels, in words” value is given as “inhibited increment”. Also, the “formation of blood vessels (tube formation), in words” value in experiment [2] (0.1 μM) was “inhibited effectively a formation of blood vessels”. Also, the “formation of blood vessels (tube formation), in words” value in experiment [2] (1 μM) is listed as “inhibited nearly completely a formation of blood vessels”. The “migration of endothelial cells, in words” value in experiment [3] was “migration of endothelial cells were inhibited”.
